# Test results published in patent publication US12344610B2, “APOL1 inhibitors and methods of use” (Maze Therapeutics, Inc., priority 2022, dated 2025).
# Key:
# [1] = system: HEK293 cells overexpressing APOL1 G2; experiment: APOL1 G2 HEK293 cell rescue assay (reversal of cell death caused by overexpression of APOL1); type: cell-based; conditions: geometric mean of at least 2 assay runs, † = single assay run
# Method: Unless otherwise specified, EC50 values are reported as the geometric mean of at least 2 assay runs on separate days. Each run represents the average of a technical replicate, where each compound was assayed twice in the same plate. A superscript t symbol indicates a value from the average of a technical replicate from a single assay run, where each compound was assayed twice in the same plate. Compounds in Table 40 are referred to by the corresponding Compound Number in Table 1, which is also referred to in the synthetic examples. When one or more of the numbered compounds are identified by stereochemistry (for example, (R)- or (S)-), the specific stereoisomer for which data is provided in Table 40 may be identified by the elution order of such compound as described in the synthetic examples. Absolute stereochemistry of such compounds may be identified by methods known in the art. For Table 40 below, n/a represents “not available”.
# Rescue EC50 values reported in Table 40 below represent the half-maximal effective concentration for reversal of cell death caused by overexpression of APOL1.
# [2] = system: HEK293 clonal cell line overexpressing APOL1 G1; experiment: APOL1 G1 HEK293 cell rescue assay (Example B3); type: cell-based; conditions: geometric mean of at least 2 runs, † = single run, ¥ = concentration at 50% rescue estimated (no sigmoidal curve)
# Method: Compounds were also assayed in a HEK293 clonal cell line overexpressing APOL1 G1 by a method similar to that shown in Example B2 above.
# Unless otherwise specified, EC50 values are reported as the geometric mean of at least 2 assay runs on separate days. Each run represents the average of a technical replicate, where each compound was assayed twice in the same plate. A superscript † symbol indicates a value from the average of a technical replicate from a single assay run, where each compound was assayed twice in the same plate. A ¥ symbol represents compound concentration at 50% rescue estimated due to lack of sigmoidal curve preventing curve fitting. Compounds in Table 41 are referred to by the corresponding Compound Number in Table 1, which is also referred to in the synthetic examples. When one or more of the numbered compounds are identified by stereochemistry (for example, (R)- or (S)-), the specific stereoisomer for which data is provided in Table 41 may be identified by the elution order of such compound as described in the synthetic examples. Absolute stereochemistry of such compounds may be identified by methods known in the art. For Table 41 below, n/a represents “not available”.
# Rescue EC50 values reported in Table 41 below represent the half-maximal effective concentration for reversal of cell death caused by overexpression of APOL1.
# [3] = HEK293 clonal line overexpressing APOL1 G1
# [4] = Homo sapiens, HEK293, HEK293 overexpressing APOL1 G2
# [5] = Homo sapiens, HEK293, HEK293 clonal line overexpressing APOL1 G1
Compound,EC50 ([1]; HEK293 overexpressing APOL1 G2) [nM],"EC50 [2, 3] [nM]","EC50 [1, 4] [nM]","EC50 [2, 5] [nM]"
"CC(COc1ccc(S(C)(=O)=O)cc1)N1CCC2(CC1)C(=O)N(C1CC(O)C1)c1ccc(Cl)cc12 (single isomer, unassigned) [Compound 206, 5-chloro-1′-[(2S) or (2R)-1-(4-methanesulfonylphenoxy)propan-2-yl]-1-[(cis) or (trans)-3-hydroxycyclobutyl]-1,2-dihydrospiro[indole-3,4′-piperidin]-2-one]",> 9540,4310,,
"CC(COc1ccc(S(C)(=O)=O)cc1)N1CCC2(CC1)C(=O)N(C1CC(O)C1)c1ccc(Cl)cc12 (single isomer, unassigned) [Compound 207, 5-chloro-1′-[(2S) or (2R)-1-(4-methanesulfonylphenoxy)propan-2-yl]-1-[(trans) or (cis)-3-hydroxycyclobutyl]-1,2-dihydrospiro[indole-3,4′-piperidin]-2-one]",> 10000,> 10000,,
"O=C1CCc2cc(OCCN3CCC4(CC3)C(=O)Nc3ccc(C(F)F)cc34)cnc2N1C1CC(CO)C1 (single isomer, unassigned) [Compound 310, 5-(difluoromethyl)-1′-[2-({7-oxo-8-[(trans) or (cis)-3-(hydroxymethyl)cyclobutyl]-5,6,7,8-tetrahydro-1,8-naphthyridin-3-yl}oxy)ethyl]-1,2-dihydrospiro[indole-3,4′-piperidin]-2-one]",103,267,,
"O=C1Nc2ccc(Cl)cc2C12CCN(CCOc1cnc(C(O)CO)nc1)CC2 (single isomer, unassigned) [Compound 378, 5-chloro-1′-[2-({2-[(1S or 1R)-1,2-dihydroxyethyl]pyrimidin-5-yl}oxy)ethyl]-1,2-dihydrospiro[indole-3,4′-piperidin]-2-one]",388,~1000,,
"O=C1Nc2ccc(Cl)cc2C12CCN(CCOc1cnc(C(O)CO)nc1)CC2 (single isomer, unassigned) [Compound 379, 5-chloro-1′-[2-({2-[(1R or 1S)-1,2-dihydroxyethyl]pyrimidin-5-yl}oxy)ethyl]-1,2-dihydrospiro[indole-3,4′-piperidin]-2-one]",842,> 10000,,
"CC(CO)(c1ncc(OCCN2CCC3(CC2)C(=O)Nc2ccc(Cl)cc23)cc1C(F)(F)F)S(C)(=O)=O (single isomer, unassigned) [Compound 403, 5-chloro-1′-[2-({6-[(2R or 2S)-1-hydroxy-2-methanesulfonylpropan-2-yl]-5-(trifluoromethyl)pyridin-3-yl}oxy)ethyl]-1,2-dihydrospiro[indole-3,4′-piperidin]-2-one]",95.7,144,,
"CN1C(=O)C2(CCN(CCOc3ccc(C4(S(C)(=O)=O)CC(O)C4)cc3)CC2)c2cc(C(F)F)ccc21 (centres unmarked) [Compound 277, 5-(difluoromethyl)-1′-{2-[4-(3-hydroxy-1-methanesulfonylcyclobutyl)phenoxy]ethyl}-1-methyl-1,2-dihydrospiro[indole-3,4′-piperidin]-2-one]",,,34,117
"N#Cc1ccc2c(c1)C1(CCN(CCOc3cnc(CCO)nc3)CC1)C(=O)N2 [Compound 332, 1′-(2-{[2-(2-hydroxyethyl)pyrimidin-5-yl]oxy}ethyl)-2-oxo-1,2-dihydrospiro[indole-3,4′-piperidine]-5-carbonitrile]",,,,~10000
"C[C@]1(O)C[C@@H](n2c(=O)cc(C(F)F)c3cc(OCCN4CCC5(CC4)C(=O)Nc4ccc(Cl)cc45)cnc32)C1 [Compound 339, 5-chloro-1′-(2-{[5-(difluoromethyl)-7-oxo-8-[(cis)-3-hydroxy-3-methylcyclobutyl]-7,8-dihydro-1,8-naphthyridin-3-yl]oxy}ethyl)-1,2-dihydrospiro[indole-3,4′-piperidin]-2-one]",,,36.6,
"C[C@]1(O)C[C@@H](n2c(=O)cc(C(F)F)c3cc(OCCN4CCC5(CC4)C(=O)Nc4ccc(C(F)F)cc45)cnc32)C1 [Compound 340, 5-(difluoromethyl)-1′-(2-{[5-(difluoromethyl)-7-oxo-8-[(cis)-3-hydroxy-3-methylcyclobutyl]-7,8-dihydro-1,8-naphthyridin-3-yl]oxy}ethyl)-1,2-dihydrospiro[indole-3,4′-piperidin]-2-one]",,,30.2,
